In ChEMBL document CHEMBL1140499, “Novel heparin/heparan sulfate mimics as inhibitors of HGF/SF-induced MET activation” (2007) one finds Activity and inhibition data, which are given here for 2 compounds.

Activity calls are given as the source filed them. The rule behind the calls is not given here.

For test [1], the species on record is Cricetulus griseus. Kind of test: Inhibition of HGF/SF-induced MET receptor activation assessed as ERK activation at 100 ug/mL by Western blot.
Test [2] is filed under the species Cricetulus griseus. Kind of test: Inhibition of FGF2-induced FGF receptor activation assessed as ERK activation at 100 ug/mL by Western blot.
The subject of another test is MDCK. Kind of test: Inhibition of HGF/SF-induced migration of MDCK cells at 100 ug/mL after 4 hrs. Type of test: functional. The conditions noted are these: Canis lupus familiaris.

As for `O=C(O)c1cc(OC[C@@H](COS(=O)(=O)O)OS(=O)(=O)O)ccc1OC[C@H](COS(=O)(=O)O)OS(=O)(=O)O`, the result in the test listed under Cricetulus griseus [1] was Active. For the same compound, the result in the test listed under Cricetulus griseus [2] was inactive. Also, the inhibition at 100 µg/mL in the test with MDCK was 57%.

As for `O=C(O)c1cc(OC[C@@H](COS(=O)(=O)O)OS(=O)(=O)O)ccc1OCCCCOS(=O)(=O)O`, the result in the test listed under Cricetulus griseus [1] was Active. Further, the result in the test filed under Cricetulus griseus [2] was inactive. The compound further registered an inhibition at 100 µg/mL with MDCK of 70%.
